According to US20210121460A1, “A TRIPLE PHARMACEUTICAL COMBINATION COMPRISING DABRAFENIB, TRAMETINIB AND AN ERK INHIBITOR” (NOVARTIS AG, priority 2018, published 2021):

These molecules were tested on BRAF V600E CRC xenograft model HT29 (assay: In vivo antitumor efficacy, HT29 BRAF V600E CRC xenograft model (Example 4, 14 day)). Settings: HT29 in female nude mice; compound A 75 mg/kg, dabrafenib 30 mg/kg, trametinib 0.3 mg/kg QD PO, cetuximab 20 mg/kg 2QW IP.
Protocol: HT29 xenografts was established by direct subcutaneous (sc) implantation of 2×10^6 cells into the right axillary region of 6-7 week old female nude mice.
Animals were weighed at dosing day(s) and dose was body weight adjusted, dosing volume was 10 ml/kg. Tumor dimensions and body weights were collected at the time of randomization and twice weekly thereafter for the study duration.
Percent treatment/control (T/C) values were calculated using the following formulae:
% Regression=100×ΔT/T0 if ΔT<0;
where: T=mean tumor volume of the drug-treated group on the final day of the study; ΔT=mean tumor volume of the drug-treated group on the final day of the study—mean tumor volume of the drug-treated group on initial day of dosing; T0=mean tumor volume of the drug-treated group on the day of cohort; C=mean tumor volume of the control group on the final day of the study; and ΔC=mean tumor volume of the control group on the final day of the study—mean tumor volume of the control group on initial day of dosing.
All data were expressed as mean±standard error of the mean (SEM). Delta tumor volume and percent body weight changes were used for statistical analysis. Between group comparisons were carried out using the One way ANOVA followed by a post hoc Tukey test. For all statistical evaluations, the level of significance was set at p<0.05. Significance compared to the untreated control group is reported unless otherwise stated.

SMILES	T/C % or Reg % at day 39 post implantation [%]
CNC[C@@H](NC(=O)c1ccc(-c2nc([C@H]3CC[C@H](O)[C@@H](F)C3)cnc2N)cc1F)c1cc(F)cc(Br)c1 [compound A, 4-(3-amino-6-((1S,3S,4S)-3-fluoro-4-hydroxycyclohexyl)pyrazin-2-yl)-N—((S)-1-(3-bromo-5-fluorophenyl)-2-(methylamino)ethyl)-2-fluorobenzamide]	53.8
CC(=O)Nc1cccc(-n2c(=O)n(C3CC3)c(=O)c3c(Nc4ccc(I)cc4F)n(C)c(=O)c(C)c32)c1 [trametinib, N-(3-(3-cyclopropyl-5-((2-fluoro-4-iodophenyl)amino)-6,8-dimethyl-2,4,7-trioxo-3,4,6,7-tetrahydropyrido[4,3-d]pyrimidin-1(2H)-yl)phenyl)acetamide]	47.7
CC(C)(C)c1nc(-c2cccc(NS(=O)(=O)c3c(F)cccc3F)c2F)c(-c2ccnc(N)n2)s1 [dabrafenib, N-(3-(5-(2-aminopyrimidin-4-yl)-2-(tert-butyl)thiazol-4-yl)-2-fluorophenyl)-2,6-difluorobenzenesulfonamide]	58.8
